In brackets after ≈: the same amount, converted by molar mass. Like-named read-outs stand apart in the source and are kept apart here. Some results are limits rather than exact numbers.

The record followed here is patent US20240116985A1, “STAPLED PEPTIDES AND METHODS THEREOF” (priority 2020, published 2024).

The nature of one series: Solubility in PBS. The class given is physicochemical. The method, boiled down: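 The PBS solution was ultracentrifuged and the supernatant analyzed by HPLC. Its peak area was divided by that of a 50 μM peptide DMSO reference injection and multiplied by 50 uM to give solubility.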
The target of series [1] is T1, beta-catenin/TCF4 engagement (Homo sapiens, UniProt P35222).
T1 construct: expressed in transfected cells; host or cells: HEK293
T1 sequence (P35222 1-781): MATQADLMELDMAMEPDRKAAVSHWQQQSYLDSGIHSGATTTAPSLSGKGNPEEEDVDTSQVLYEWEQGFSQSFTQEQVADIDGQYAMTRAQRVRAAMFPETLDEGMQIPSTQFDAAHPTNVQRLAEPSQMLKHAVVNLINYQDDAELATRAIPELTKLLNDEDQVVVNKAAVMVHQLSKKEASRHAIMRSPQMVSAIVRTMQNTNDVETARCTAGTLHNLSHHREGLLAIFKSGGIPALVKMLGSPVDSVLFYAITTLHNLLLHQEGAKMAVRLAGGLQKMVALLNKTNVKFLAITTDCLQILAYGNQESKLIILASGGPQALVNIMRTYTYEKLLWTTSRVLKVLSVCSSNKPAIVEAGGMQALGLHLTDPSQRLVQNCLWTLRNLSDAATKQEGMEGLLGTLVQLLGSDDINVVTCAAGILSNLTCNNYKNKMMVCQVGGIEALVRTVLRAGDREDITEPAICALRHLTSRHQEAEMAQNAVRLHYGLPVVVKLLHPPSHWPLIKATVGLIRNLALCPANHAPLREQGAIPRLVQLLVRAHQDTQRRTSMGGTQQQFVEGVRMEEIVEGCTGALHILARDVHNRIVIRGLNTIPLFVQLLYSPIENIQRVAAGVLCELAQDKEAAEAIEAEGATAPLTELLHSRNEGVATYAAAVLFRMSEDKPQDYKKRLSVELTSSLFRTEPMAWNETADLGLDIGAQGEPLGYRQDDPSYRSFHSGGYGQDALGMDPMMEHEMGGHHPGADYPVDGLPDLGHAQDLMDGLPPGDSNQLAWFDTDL
The experiment in a line: Nano-BRET target engagement assay (B-cat-Halo & TCF4-Luc in HEK293 cells). In kind it is cell-based. The conditions noted are these: for IC50: absolute IC50, read-out: NanoBRET Abs IC50.

Series [2] addresses T2, full-length beta-Catenin (Uniprot ID P35222) (Homo sapiens, UniProt P35222).
T2 construct: 10 nM full-length beta-Catenin (Uniprot ID P35222)
T2 sequence (P35222 1-781): T1 sequence (P35222 1-781)
In words: Fluorescence polarization IC50 (beta-catenin / 5FAM-TCF4 10-53 competition). In kind it is binding.

The next series can be described thus: CHI Log D procedure. Particulars: for chromatographic logD: pH 7.4, CHI Log D; for CHI Log D: pH 7.4. In kind it is physicochemical.
Setting [3] is: fluorescence polarization, read-out: beta-Catenin FP IC50.

In the case of `CC[C@H](C)[C@@H]1NC(=O)[C@H](CC(=O)O)NC(=O)[C@]2(CC=CCCCC3(CCCC=CCCCCCC[C@@](C)(C(=O)N[C@@H](Cc4ccccc4)C(=O)N[C@@H](Cc4csc5ccccc45)C(=O)N[C@@H](CCC(N)=O)C(N)=O)NC(=O)[C@H](CCC(N)=O)NC(=O)[C@H](Cc4ccccc4)NC(=O)[C@H](C)NC(=O)[C@H](C)NC(=O)[C@H](CCC(=O)O)NC(=O)[C@H](CC(=O)O)NC3=O)NC1=O)CCCN2C(C)=O` (stereo partly drawn) [I-407, Ac-PL3-Asp-Ile-B5-Asp-Glu-Ala-Ala-Phe-Gln-S8-Phe-BztA-Gln-NH2], the “Solubility” value in “Solubility in PBS” came to 50 µM (≈ 94.2 µg/mL). Besides, the inhibition at 10 µM in series [1] (HEK293, @ 10 uM, read-out: NanoBRET % inh @ 10 uM) was 55.1%. Besides, the IC50 in series [2] (setting [3]) came out at 30 nM. In addition, the chromatographic logD in “CHI Log D procedure” stood at 2.39.

As for `COc1ccccc1C[C@H](NC(=O)[C@]1(C)CCCCCCC=CCCCC2(CCCC=CC[C@]3(CCCN3C(C)=O)C(=O)N[C@@H](CC(=O)O)C(=O)N[C@@H](C)C(=O)N2)C(=O)N[C@@H](CC(=O)O)C(=O)N[C@@H](CCC(=O)O)C(=O)N[C@@H](C)C(=O)N[C@@H](C)C(=O)N[C@@H](Cc2ccccc2)C(=O)N[C@@H](CC(N)=O)C(=O)N1)C(=O)N[C@@H](Cc1csc2ccccc12)C(=O)N[C@@H](CCC(N)=O)C(N)=O` (stereo partly drawn) [I-437, Ac-PL3-Asp-Ala-B5-Asp-Glu-Ala-Ala-Phe-Asn-S8-2OMeF-BztA-Gln-NH2], in “Solubility in PBS” (Solubility (uM)), the concentration in solution (Solubility) came to 44 µM (≈ 81.7 µg/mL). For the same molecule, the IC50 in series [1] stood at 17500 nM; in series [2] (setting [3]), 26 nM. The chromatographic logD in the series “CHI Log D procedure” stood at 2.

`CC(=O)N1CCC[C@]12CC=CCCCC1(CCCC=CCCCOC(=O)N3CC[C@@](C(=O)N[C@@H](Cc4ccccc4)C(=O)N[C@@H](Cc4csc5ccccc45)C(=O)N[C@@H](CCC(N)=O)C(N)=O)(C3)NC(=O)[C@H](CC(N)=O)NC(=O)[C@H](Cc3ccccc3)NC(=O)[C@H](C)NC(=O)[C@H](C)NC(=O)[C@H](CCC(=O)O)NC(=O)[C@H](CC(=O)O)NC1=O)NC(=O)[C@H](C)NC(=O)[C@H](CC(=O)O)NC2=O` (stereo partly drawn) [I-462, Ac-PL3-Asp-Ala-B5-Asp-Glu-Ala-Ala-Phe-Asn-PyrS2-Phe-BztA-Gln-NH2]: the Solubility in the series “Solubility in PBS” (Solubility (uM)) was 49 µM (≈ 91.6 µg/mL). In addition, the IC50 in series [1] is greater than 20000 nM; in series [2] (setting [3]), 28 nM. In addition, in the series “CHI Log D procedure”, the chromatographic logD turned out to be 1.76.

Regarding `CC[C@H](C)[C@@H]1NC(=O)[C@H](CC(=O)O)NC(=O)[C@]2(CC=CCCCC3(CCCC=CCCCCCC[C@@](C)(C(=O)N[C@@H](Cc4ccccc4)C(=O)N[C@@H](Cc4csc5ccccc45)C(=O)N[C@@H](CCC(N)=O)C(N)=O)NC(=O)[C@H](CCC(N)=O)NC(=O)[C@H](Cc4cccs4)NC(=O)[C@H](C)NC(=O)[C@H](C)NC(=O)[C@H](CCC(=O)O)NC(=O)[C@H](CC(=O)O)NC3=O)NC1=O)CCCN2C(C)=O` (stereo partly drawn) [I-485, Ac-PL3-Asp-Ile-B5-Asp-Glu-Ala-Ala-2Thi-Gln-S8-Phe-BztA-Gln-NH2], the “Solubility” value in the series “Solubility in PBS” is 50 µM (≈ 94.5 µg/mL). The IC50 was 11300 nM in series [1] and 34 nM in series [2] (setting [3]). In addition, the chromatographic logD in the series “CHI Log D procedure” is 2.3.

For `CC(=O)N1CCC[C@]12CC=CCCCC1(CCCC=CCCCCCC[C@@](C)(C(=O)N[C@@H](Cc3ccccc3)C(=O)N[C@@H](Cc3csc4ccccc34)C(=O)N[C@@H](Cc3c[nH]cn3)C(N)=O)NC(=O)[C@H](CCC(N)=O)NC(=O)[C@H](Cc3ccccc3)NC(=O)[C@H](C)NC(=O)[C@H](C)NC(=O)[C@H](CCC(=O)O)NC(=O)[C@H](CC(=O)O)NC1=O)NC(=O)[C@H](CC(C)C)NC(=O)[C@H](CC(=O)O)NC2=O` (stereo partly drawn) [I-506, Ac-PL3-Asp-Leu-B5-Asp-Glu-Ala-Ala-Phe-Gln-S8-Phe-BztA-His-NH2], the “Solubility” value in the series “Solubility in PBS” is 10 µM (≈ 18.9 µg/mL). Also, the figures for the IC50 in series [1] and in series [2] (setting [3]) were 8900 nM and 25 nM, respectively. Besides, the chromatographic logD in the series “CHI Log D procedure” was found to be 2.41.

`CC[C@H](C)[C@@H]1NC(=O)[C@H](CC(=O)O)NC(=O)[C@]2(CC=CCCCC3(CCCC=CCCCCCC[C@@](C)(C(=O)N[C@@H](Cc4ccccc4OC)C(=O)N[C@@H](Cc4csc5ccccc45)C(=O)N[C@@H](Cc4c[nH]cn4)C(N)=O)NC(=O)[C@H](CC(N)=O)NC(=O)[C@H](Cc4ccccc4)NC(=O)[C@H](C)NC(=O)[C@H](C)NC(=O)[C@H](CCC(=O)O)NC(=O)[C@H](CC(=O)O)NC3=O)NC1=O)CCCN2C(C)=O` (stereo partly drawn) [I-512, Ac-PL3-Asp-Ile-B5-Asp-Glu-Ala-Ala-Phe-Asn-S8-2OMeF-BztA-His-NH2] registered a Solubility in the series “Solubility in PBS” (Solubility (uM)) of 17 µM (≈ 32.4 µg/mL). Moreover, the figures for the IC50 in series [1] and in series [2] (setting [3]) were 12300 nM and 20 nM, respectively. The molecule further registered a chromatographic logD in the series “CHI Log D procedure” of 2.44.

Turning to `CC[C@H](C)[C@@H]1NC(=O)[C@H](CC(=O)O)NC(=O)[C@]2(CC=CCCCC3(CCCC=CCCCCCC[C@@](C)(C(=O)N[C@@H](Cc4ccccc4C(N)=O)C(=O)N[C@@H](Cc4csc5ccccc45)C(=O)N[C@@H](Cc4c[nH]cn4)C(N)=O)NC(=O)[C@H](CC(N)=O)NC(=O)[C@H](Cc4ccccc4)NC(=O)[C@H](C)NC(=O)[C@H](C)NC(=O)[C@H](CCC(=O)O)NC(=O)[C@H](CC(=O)O)NC3=O)NC1=O)CCCN2C(C)=O` (stereo partly drawn) [I-514, Ac-PL3-Asp-Ile-B5-Asp-Glu-Ala-Ala-Phe-Asn-S8-2CBMF-BztA-His-NH2], in the series “Solubility in PBS”, the “Solubility” value was found to be 50 µM (≈ 96.1 µg/mL). Also, the IC50 was greater than 20000 nM in series [1] and 30 nM in series [2] (setting [3]). Besides, in the series “CHI Log D procedure”, the chromatographic logD is 1.91.

In “Solubility in PBS” (Solubility (uM)), `CC[C@H](C)[C@@H]1NC(=O)[C@H](CC(=O)O)NC(=O)[C@]2(CC=CCCCC3(CCCC=CCCCCCC[C@@](C)(C(=O)N[C@@H](Cc4ccsc4)C(=O)N[C@@H](Cc4csc5ccccc45)C(=O)N[C@@H](Cc4c[nH]cn4)C(N)=O)NC(=O)[C@H](CC(N)=O)NC(=O)[C@H](Cc4ccccc4)NC(=O)[C@H](C)NC(=O)[C@H](C)NC(=O)[C@H](CCC(=O)O)NC(=O)[C@H](CC(=O)O)NC3=O)NC1=O)CCCN2C(C)=O` (stereo partly drawn) [I-517, Ac-PL3-Asp-Ile-B5-Asp-Glu-Ala-Ala-Phe-Asn-S8-3Thi-BztA-His-NH2] returned a Solubility of 15 µM (≈ 28.3 µg/mL). The IC50 in series [1] is 9700 nM; in series [2] (setting [3]), 15 nM. Moreover, in “CHI Log D procedure”, the chromatographic logD amounted to 2.42.

As to `CC(=O)N1CCC[C@]12CC=CCCCC1(CCCC=CCCCCCC[C@@](C)(C(=O)N[C@@H](Cc3ccsc3)C(=O)N[C@@H](Cc3csc4ccccc34)C(=O)N[C@@H](CCC(N)=O)C(N)=O)NC(=O)[C@H](CC(N)=O)NC(=O)[C@H](Cc3ccccc3)NC(=O)[C@H](C)NC(=O)[C@H](C)NC(=O)[C@H](CCC(=O)O)NC(=O)[C@H](CC(=O)O)NC1=O)NC(=O)[C@H](C)NC(=O)[C@H](CC(=O)O)NC2=O` (stereo partly drawn) [I-519, Ac-PL3-Asp-Ala-B5-Asp-Glu-Ala-Ala-Phe-Asn-S8-3Thi-BztA-Gln-NH2], in “Solubility in PBS”, the “Solubility” value came out at 50 µM (≈ 91.7 µg/mL). The results for the IC50 in series [1], in series [2] (setting [3]) and in series [2] (read-out: FP EC50) were 28800 nM, 33 nM and 33 nM, respectively. In “CHI Log D procedure”, the “CHI Log D” value worked out at 2.004.

On to `CC[C@H](C)[C@@H]1NC(=O)[C@H](CC(=O)O)NC(=O)[C@]2(CC=CCCCC3(CCCC=CCCCCCC[C@@](C)(C(=O)N[C@@H](Cc4ccsc4)C(=O)N[C@@H](Cc4csc5ccccc45)C(=O)N[C@@H](CCC(N)=O)C(N)=O)NC(=O)[C@H](CC(N)=O)NC(=O)[C@H](Cc4ccccc4)NC(=O)[C@H](C)NC(=O)[C@H](C)NC(=O)[C@H](CCC(=O)O)NC(=O)[C@H](CC(=O)O)NC3=O)NC1=O)CCCN2C(C)=O` (stereo partly drawn) [I-521, Ac-PL3-Asp-Ile-B5-Asp-Glu-Ala-Ala-Phe-Asn-S8-3Thi-BztA-Gln-NH2], for which the “Solubility” value in “Solubility in PBS” was found to be 50 µM (≈ 93.8 µg/mL). Also, the IC50 was determined as 15400 nM in series [1], 23 nM in series [2] (setting [3]) and 23 nM in series [2] (read-out: FP EC50). Moreover, in the series “CHI Log D procedure”, the “CHI Log D” value is 2.351.
